{
  "source": "patent US20090030024A1",
  "about": "“THIAZOLES AS FUNGICIDES” (priority 2005, published 2009)",
  "data": [
    {"assay": "logP determination by retention times (calibration with alkan-2-ones)", "conditions": "logP(HCOOH), HCOOH", "values": [
      {"smiles": "COc1cc(Nc2ncc(Cl)c(-c3sc(C)nc3C)n2)cc(OC)c1OC", "note": "[Example 874, 5-Chloro-4-(2,4-dimethyl-1,3-thiazol-5-yl)-N-(3,4,5-trimethoxyphenyl)-pyrimidine-2-amine]", "chromatographic logP": 2.82}
    ]},
    {"assay": "logP determination by retention times (calibration with alkan-2-ones)", "conditions": "logP, values marked *: HPLC on reversed-phase C 18, 40° C., mobile phase 0.1% aqueous formic acid and acetonitrile, linear gradient 10% to 95% acetonitrile", "values": [
      {"smiles": "COCCCNc1nc(C)c(-c2ccnc(Nc3cccc([N+](=O)[O-])c3)n2)s1", "note": "[Example 865, 4-{2-[(3-methoxypropyl)amino]-4-methyl-1,3-thiazol-5-yl}-N-(3-nitrophenyl)pyrimidine-2-amine]", "chromatographic logP": 2.03},
      {"smiles": "COCCCNc1nc(C)c(-c2ccnc(Nc3cc(OC)c(OC)c(OC)c3)n2)s1", "note": "[Example 866, 4-{2-[(3-methoxypropyl)amino]-4-methyl-1,3-thiazol-5-yl}-N-(3,4,5-trimethoxyphenyl)pyrimidine-2-amine]", "chromatographic logP": 1.73},
      {"smiles": "COCCNc1nc(C)c(-c2ccnc(Nc3ccc(Cl)nc3)n2)s1", "note": "[Example 872, N-(6-chloropyridin-3-yl)-4-{2-[(2-methoxyethyl)amino]-4-methyl-1,3-thiazol-5-yl}pyrimidine-2-amine]", "chromatographic logP": 1.71},
      {"smiles": "Cc1nc(C)c(-c2nc(Nc3ccccc3)ncc2Cl)s1", "note": "[Example 873, 5-chloro-4-(2,4-dimethyl-1,3-thiazol-5-yl)-N-phenylpyrimidine-2-amine]", "chromatographic logP": 3.26},
      {"smiles": "COc1cc(Nc2ncc(Cl)c(-c3sc(C)nc3C)n2)cc(OC)c1OC", "note": "[Example 874, 5-Chloro-4-(2,4-dimethyl-1,3-thiazol-5-yl)-N-(3,4,5-trimethoxyphenyl)-pyrimidine-2-amine]", "chromatographic logP": 2.82},
      {"smiles": "Cc1nc(C)c(-c2nc(Nc3cccc(Cl)c3)ncc2Cl)s1", "note": "[Example 875, 5-chloro-N-(3-chlorophenyl)-4-(2,4-dimethyl-1,3-thiazol-5-yl)pyrimidine-2-amine]", "chromatographic logP": 3.86},
      {"smiles": "CCc1nc(C)c(-c2nc(Nc3ccccc3)ncc2Cl)s1", "note": "[Example 876, 5-chloro-4-(2-ethyl-4-methyl-1,3-thiazol-5-yl)-N-phenylpyrimidine-2-amine]", "chromatographic logP": 3.78},
      {"smiles": "CCc1nc(C)c(-c2nc(Nc3ccc(Cl)cc3)ncc2Cl)s1", "note": "[Example 877, 5-chloro-N-(4-chlorophenyl)-4-(2-ethyl-4-methyl-1,3-thiazol-5-yl)pyrimidine-2-amine]", "chromatographic logP": 4.48},
      {"smiles": "CCc1nc(C)c(-c2nc(Nc3ccccc3Cl)ncc2Cl)s1", "note": "[Example 878, 5-chloro-N-(2-chlorophenyl)-4-(2-ethyl-4-methyl-1,3-thiazol-5-yl)pyrimidine-2-amine]", "chromatographic logP": 4.62},
      {"smiles": "CCc1nc(C)c(-c2ccnc(Nc3ccc(N(C)C)cc3)n2)s1", "note": "[Example 879, N′-[4-(2-ethyl-4-methyl-1,3-thiazol-5-yl)pyrimidin-2-yl]-N,N-dimethylbenzene-1,4-diamine]", "chromatographic logP": 1.56},
      {"smiles": "CCc1nc(C)c(-c2ccnc(Nc3cccc(N(C)C)c3)n2)s1", "note": "[Example 880, N′-[4-(2-ethyl-4-methyl-1,3-thiazol-5-yl)pyrimidin-2-yl]-N,N-dimethylbenzene-1,3-diamine]", "chromatographic logP": 1.99},
      {"smiles": "CCc1nc(C)c(-c2ccnc(Nc3ccc(C(=O)OCCOC)cc3)n2)s1", "note": "[Example 881, 2-methoxyethyl-4-{[4-(2-ethyl-4-methyl-1,3-thiazol-5-yl)pyrimidin-2-yl]amino}benzoate]", "chromatographic logP": 2.91},
      {"smiles": "Cc1nc(C(C)(C)C)sc1-c1ccnc(Nc2ccccc2)n1", "note": "[Example 882, 4-(2-tert-butyl-4-methyl-1,3-thiazol-5-yl)-N-phenylpyrimidine-2-amine]", "chromatographic logP": 4.24},
      {"smiles": "Cc1nc(C(C)(C)C)sc1-c1ccnc(Nc2ccc(F)cc2)n1", "note": "[Example 883, 4-(2-tert-butyl-4-methyl-1,3-thiazol-5-yl)-N-(4-fluorophenyl)pyrimidine-2-amine]", "chromatographic logP": 4.18},
      {"smiles": "Cc1nc(C(C)(C)C)sc1-c1ccnc(Nc2cccc(Cl)c2)n1", "note": "[Example 884, 4-(2-tert-butyl-4-methyl-1,3-thiazol-5-yl)-N-(3-chlorophenyl)pyrimidine-2-amine]", "chromatographic logP": 4.82},
      {"smiles": "CC(=O)c1ccc(Nc2nccc(-c3sc(C(C)(C)C)nc3C)n2)cc1", "note": "[Example 885, 1-(4-{[4-(2-tert-butyl-4-methyl-1,3-thiazol-5-yl)pyrimidin-2-yl]amino}phenyl)ethanone]", "chromatographic logP": 4.22},
      {"smiles": "COc1ccc(Nc2nccc(-c3sc(C(C)(C)C)nc3C)n2)cn1", "note": "[Example 886, 4-(2-tert-butyl-4-methyl-1,3-thiazol-5-yl)-N-(6-methoxypyridin-3-yl)pyrimidine-2-amine]", "chromatographic logP": 3.42},
      {"smiles": "CC(=O)c1cccc(Nc2nccc(-c3sc(C(C)(C)C)nc3C)n2)c1", "note": "[Example 887, 1-(3-{[4-(2-tert-butyl-4-methyl-1,3-thiazol-5-yl)pyrimidin-2-yl]amino}phenyl)ethanone]", "chromatographic logP": 3.66},
      {"smiles": "COc1cc(Nc2nccc(-c3sc(C(C)(C)C)nc3C)n2)cc(OC)c1OC", "note": "[Example 888, 4-(2-tert-butyl-4-methyl-1,3-thiazol-5-yl)-N-(3,4,5-trimethoxyphenyl)pyrimidine-2-amine]", "chromatographic logP": 3.48},
      {"smiles": "COCC(C)Nc1nc(C)c(-c2ccnc(Nc3ccc4c(c3)C(=O)OC4)n2)s1", "note": "(stereo not drawn) [Example 889, 6-[(4-{2-[(2-methoxy-1-methylethyl)amino]-4-methyl-1,3-thiazol-5-yl}pyrimidin-2-yl)amino]-2-benzofuran-1(3H)-one]", "chromatographic logP": 1.65},
      {"smiles": "COCCNc1nc(C)c(-c2ccnc(Nc3ccc4c(c3)C(=O)OC4)n2)s1", "note": "[Example 890, 6-[(4-{2-[(2-methoxyethyl)amino]4-methyl-1,3-thiazol-5-yl}pyrimidin-2-yl)amino]-2-benzofuran-1(3H)-one]", "chromatographic logP": 1.53},
      {"smiles": "Cc1nc(NCCO)sc1-c1ccnc(Nc2ccc(F)cc2)n1", "note": "[Example 891, 2-[(5-{2-[(4-fluorophenyl)amino]pyrimidin-4-yl}-4-methyl-1,3-thiazol-2-yl)amino]ethanol]", "chromatographic logP": 1.5},
      {"smiles": "COCCNc1nc(C)c(-c2ccnc(Nc3ccc(C)c(C)c3)n2)s1", "note": "[Example 896, N-(3,4-dimethylphenyl)-4-{2-[(2-methoxyethyl)amino]-4-methyl-1,3-thiazol-5-yl}pyrimidine-2-amine]", "chromatographic logP": 2.08},
      {"smiles": "COCCNc1nc(C)c(-c2ccnc(Nc3ccc(F)c(F)c3)n2)s1", "note": "[Example 897, N-(3,4-difluorophenyl)-4-{2-[(2-methoxyethyl)amino]-4-methyl-1,3-thiazol-5-yl}pyrimidine-2-amine]", "chromatographic logP": 2.15},
      {"smiles": "COCCNc1nc(C)c(-c2ccnc(Nc3ccc(Cl)cc3)n2)s1", "note": "[Example 898, N-(4-chlorophenyl)-4-{2-[(2-methoxyethyl)amino]-4-methyl-1,3-thiazol-5-yl}pyrimidine-2-amine]", "chromatographic logP": 2.24},
      {"smiles": "COCCOc1nc(C)c(-c2ccnc(Nc3ccc(F)cc3)n2)s1", "note": "[Example 899, N-(4-fluorophenyl)-4-[2-(2-methoxyethoxy)-4-methyl-1,3-thiazol-5-yl]pyrimidine-2-amine]", "chromatographic logP": 3.12},
      {"smiles": "COCCOc1nc(C)c(-c2ccnc(Nc3ccccc3)n2)s1", "note": "[Example 901, 4-[2-(2-methoxyethoxy)-4-methyl-1,3-thiazol-5-yl]-N-phenylpyrimidine-2-amine]", "chromatographic logP": 3.01},
      {"smiles": "CCc1nc(C)c(-c2nc(Nc3ccccc3)ncc2Br)s1", "note": "[Example 902, 5-bromo-4-(2-ethyl-4-methyl-1,3-thiazol-5-yl)-N-phenylpyrimidine-2-amine]", "chromatographic logP": 3.82}
    ]},
    {"assay": "logP determination by retention times (calibration with alkan-2-ones)", "conditions": "values marked *: HPLC on reversed-phase C 18, 40° C., mobile phase 0.1% aqueous formic acid and acetonitrile, linear gradient 10% to 95% acetonitrile", "values": [
      {"smiles": "CC(=O)c1ccc(Nc2nccc(-c3sc(N(C)C)nc3C)n2)cc1", "note": "[Example 867, 1-[4-({4-[2-(dimethylamine)-4-methyl-1,3-thiazol-5-yl]pyrimidin-2-yl}amino)phenyl]ethanone]", "logP": "1.9*"}
    ]}
  ]
}
